# Laboratory results: PMC8266241, “Tetralone derivatives are MIF tautomerase inhibitors and attenuate macrophage activation and amplify the hypothermic response in endotoxemic mice” (Journal of Enzyme Inhibition and Medicinal Chemistry, 2021)
# Where two headings read alike, the source gives them in different places.
# Experiments:
# [1] = system: NF-κB activation in RAW-Blue™ cells; test: NF-κB activation reporter assay (QUANTI-Blue); format: cell-based, mouse; details: 20 µM pre-treatment, 1 µg/ml LPS 24 h, vs LPS-activated cells
# Protocol: (§1) In cell culture experiments, we used RAW264.7 mouse monocyte/macrophage cell line (ECACC, Salisbury, UK; passage number: 8–15) and RAW-Blue™ cells (Invivogen, Toulouse France, passage number: 10–14). RAW264.7 and RAW-Blue™ cells were cultured in 5% CO2 at 37 °C in endotoxin-tested Dulbecco’s Modified Eagle’s Medium (high glucose, 4.5 g/L, 2 mM L-glutamine; Corning, Corning Incorporated Costar, Corning, NY) supplemented with 10% FBS. For culturing RAW-Blue™ cells, we also added 100 µg/ml normocin and 200 µg/ml zeocin to the medium. The day before the experiments, cells were plated onto 24- or 96-well plates and cultured overnight. […] The freshly synthesised tetralone derivatives were dissolved in DMSO and applied in 20 µM concentration as a pre-treatment, added 30 min before LPS induction. To exclude the effects of vehicle, both CTRL and LPS-treated cells received the same amount of DMSO.
# The detection of NF-κB activation was accomplished by using RAW-Blue™ cells. RAW-Blue™ cells are genetically modified RAW264.7 macrophages, which are able to secrete embryonic alkaline phosphatase (EAP) upon LPS induction and following NF-κB activation. The levels of EAP can be examined using QUANTI-Blue™ detection medium.
# RAW-Blue™ cells were seeded into 96-well plate at a density of 10^5cells/well. Cells were treated with tetralones (pre-treatment, 20 µM) and with 1 µg/ml LPS. 24 h after LPS treatment 20 µl medium was removed and incubated with 100 µl QUANTI-Blue™ detection medium (Invivogen; Toulouse, France) in 96-well plates. The optical density was measured at 600 nm.
# RAW264.7 cells [2] = test: ROS production in LPS-induced macrophages (DHR123); format: cell-based, mouse; details: 20 µM pre-treatment, 1 µg/ml LPS 24 h; for decrease in ROS concentrations: vs LPS-activated cells
# Protocol: as §1
# To measure the amount of reactive oxygen species we seeded RAW264.7 cells onto 96-well plates in a density of 10^5cells/well. Cells were treated with the tetralones as a pre-treatment and they were induced with 1 µg/ml LPS for 24 h. Then 2 µM dihydrorhodamine123 (DHR123; Life Technologies, Carlsbad, CA) fluorescent dye was added and incubated for an additional 2 h. Fluorescent intensity of the dye (excitation 490 nm/emission 510–570 nm) was measured with Glomax Multi Detection System (Promega®, Madison, WI, USA).
# RAW264.7 cells [3] = test: Nitrite production in LPS-induced macrophages (Griess reagent); format: cell-based, mouse; details: 20 µM pre-treatment, 1 µg/ml LPS 24 h; for lower nitrite concentrations: vs LPS-activated cells
# Protocol: as §1
# For nitrite measurements, we applied the same culturing conditions, treatments, and equipment as described above. After 24 h of incubation, 50 µl medium was removed and added to equal amount of Griess reagent (Sigma-Aldrich, St. Louis, MO, USA) in 96-well plate. The optical density was measured at 550 nm wavelength.
# recombinant human MIF [4] = molecular target: T1, recombinant human MIF (Homo sapiens, UniProt P14174); test: Tautomerase assay: keto-enol tautomeric conversion of phenylpyruvate (enolase activity); format: biochemical; details: for IC50: keto-enol conversion of phenylpyruvate, read-out: Inhibition of enolase (IC50)
# T1 construct: purchased ATGen Co. Ltd., Seoul, Republic of Korea
# T1 sequence (P14174 2-115 limits assumed): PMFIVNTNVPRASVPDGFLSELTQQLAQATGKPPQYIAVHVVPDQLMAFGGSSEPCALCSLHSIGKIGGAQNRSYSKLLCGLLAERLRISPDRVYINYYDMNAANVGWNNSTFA
# recombinant human MIF [5] = molecular target: T1, recombinant human MIF; test: Tautomerase assay: enol-keto tautomeric conversion of phenylpyruvate (ketonase reaction); format: biochemical; details: for IC50: enol-keto conversion of phenylpyruvate, 100 µM substrate, pH 6.5, read-out: Inhibition of ketonase (IC50); for IC50enolase/IC50ketonase: selectivity for ketonase
# Protocol: The enol-keto tautomeric conversion of phenylpyruvate (ketonase reaction) was assessed at room temperature by monitoring the decrease in absorbance at 288 nm on a dual path Shimadzu 2100 UV spectrophotometer (Shimadzu, Kyoto, Japan) according to Taylor et al.[55] with minor modifications. Briefly, the 0.72 ml reaction mixture consisted of the enzyme at a final concentration of 0.4 µg/ml and the substrate in a 50 mM sodium phosphate buffer (pH = 6.5). The phenylpyruvate substrate was dissolved fresh in absolute ethanol to yield a final concentration of 100 µM. The reaction was monitored for 75 s at room temperature. A recombinant human MIF (from ATGen Co. Ltd., Seoul, Republic of Korea) was used as the enzyme source. Inhibitors were dissolved fresh in ethanol or DMSO. […] The compounds were diluted to achieve final concentrations of 200, 100, 50, 20, 5, 1, and 0.5 µM in the reaction mixture. All data presented have been derived from consonant measurements repeated at least three times. […] The areas under the curves obtained with and without the inhibitors were used to compare the conversion rates of the substrate.
# recombinant human MIF [6] = molecular target: T1, recombinant human MIF; design: method as in PMID 15778121; details: reference inhibitor; read-out: enolase IC50 of reference inhibitor; cited from earlier work
# recombinant human MIF [7] = molecular target: T1, recombinant human MIF; design: method as in PMID 15778121; details: reference inhibitor; read-out: ketonase IC50 of reference inhibitor; cited from earlier work
# TNF-α in RAW264.7 cells = test: TNF-α production, ELISA; format: cell-based, mouse; details: 20 µM pre-treatment, 1 µg/ml LPS 24 h
# Protocol: as §1, with “To exclude the effects of vehicle, both CTRL and LPS-treated cells received the same amount of DMSO.” left out
# (§2) For cytokine concentration measurements, RAW264.7 cells were cultured in 24-well plates at a density of 5*10^5 cells/well and treated with tetralones (pre-treatment, 20 µM) and with 1 µg/ml LPS for 24 h. TNF-α, IL-6 and CCL-2 levels were determined from the culturing media by using Ready-Set-Go ELISA kits (eBioscience, San Diego, CA, USA) for TNF-α and IL-6 detection and mouse CCL-2 uncoated ELISA-kit (Invitrogen, Vienna, Austria) for CCL-2 determination. ELISA-kits were applied as provided by the protocol of the manufacturer, the optical density was measured at 450 nm.
# IL-6 in RAW264.7 cells = test: IL-6 production, ELISA; format: cell-based, mouse; details: 20 µM pre-treatment, 1 µg/ml LPS 24 h
# Protocol: as §1, with “To exclude the effects of vehicle, both CTRL and LPS-treated cells received the same amount of DMSO.” left out
# as §2
Structure (SMILES),IC50 (recombinant human MIF [4]) [µM],IC50 (recombinant human MIF [5]) [µM],other results
O=C1/C(=C/c2c[nH]c3ccccc23)CCc2ccccc21 [Compound 23],2.89 ± 0.75,58.8 ± 10.6,"effect on NF-κB activation [1]: slight, but statistically significant inhibitory effect; effect on ROS level (RAW264.7 cells [2]): induced a slight increase; effect on nitrite production (RAW264.7 cells [3]): could also inhibit nitrite production, but to a lower extent; IC50ketonase/IC50enolase (recombinant human MIF [4]; selectivity for enolase): 20"
O=C1/C(=C/c2ccco2)CCc2ccccc21 [Compound 19],25.4 ± 4.7,57.7 ± 12.6,–
O=C(O)/C=C/c1ccc(O)c(O)c1 [caffeic acid],–,–,IC50 (recombinant human MIF [6]): 2 µM; IC50 (recombinant human MIF [7]): 0.5 µM
O=C1/C(=C/c2ccc(Cl)c(Cl)c2)CCc2ccccc21 [Compound 12],91.5 ± 9,2620 ± 696,–
COc1ccc(/C=C2\COc3ccccc3C2=O)cc1 [Compound 30],425 ± 70,96 ± 29.9,–
Cc1cccc(/C=C2\COc3ccccc3C2=O)c1 [Compound 29],443 ± 112,56.1 ± 8.8,–
O=C1/C(=C/c2cccc(Br)c2)CCc2ccccc21 [Compound 9],3350 ± 424,7340 ± 1020,–
O=C1/C(=C/c2ccc(F)cc2)CCc2ccccc21 [Compound 10],42.1 ± 4.3,72.4 ± 3.4,–
O=C1/C(=C/c2ccc[nH]2)CCc2ccccc21 [Compound 21],125 ± 39,142 ± 31,–
O=C1/C(=C/c2ccccc2)C[S+]([O-])c2ccccc21 (racemic) [Compound 37],193 ± 59,94.6 ± 25.4,–
O=C1/C(=C/c2ccccc2)CCc2ccccc21 [Compound 2],113 ± 16,127 ± 20,–
O=C1/C(=C/c2ccccc2Cl)CCc2ccccc21 [Compound 7],458 ± 73,2640 ± 406,–
O=C1/C(=C/c2ccc(Br)cc2)CCc2ccccc21 [Compound 8],232 ± 54,52.2 ± 11.5,–
O=C1/C(=C/c2ccc(Br)cc2)COc2ccccc21 [Compound 33],1890 ± 438,311 ± 77,–
O=C1/C(=C/c2ccc(Cl)cc2)CCc2ccccc21 [Compound 6],42.8 ± 3.1,59.1 ± 9.7,–
Cc1ccc(/C=C2\COc3ccccc3C2=O)cc1 [Compound 28],3620 ± 829,102 ± 19,–
COc1ccccc1/C=C1\COc2ccccc2C1=O [Compound 32],1260 ± 159,4.31 ± 1.34,effect on NF-κB activation [1]: could not show any reducing effect; decrease in ROS concentrations (RAW264.7 cells [2]): ~20%; lower nitrite concentrations (RAW264.7 cells [3]): ~50%; effect on TNF-α production (TNF-α in RAW264.7 cells): reduced TNF-α production; effect on IL-6 production (IL-6 in RAW264.7 cells): had the most dominant effect
COc1ccc(/C=C2\CCc3ccccc3C2=O)cc1OC [Compound 17],302 ± 63,585 ± 94,–
N#Cc1ccc(/C=C2\CCc3ccccc3C2=O)cc1 [Compound 16],43.2 ± 12.4,146 ± 17,–
O=C1/C(=C/c2c(Cl)cccc2Cl)CCc2ccccc21 [Compound 11],35.5 ± 5.9,58.9 ± 10.3,–
O=C(O)c1ccc(/C=C2\CCc3ccccc3C2=O)cc1 [Compound 14],37.7 ± 16.3,187 ± 32,–
COc1ccc(/C=C2\CCc3ccccc3C2=O)cc1 [Compound 5],33.4 ± 8.8,57 ± 14.1,–
"O=C1/C(=C/c2ccccc2)Cc2ccccc21 [Compound 1, E-2-phenylmethylene-1-indanone]",20.2 ± 3.9,82.8 ± 16.5,–

# The remaining compounds from weak to strong by IC50 (recombinant human MIF [5]), led by results:
IC50 (recombinant human MIF [4]) [µM],IC50 (recombinant human MIF [5]) [µM],Structure (SMILES),other results
–,419 ± 113,O=C1/C(=C/c2ccccc2)C(c2ccccc2)Oc2ccccc21 (stereo not shown) [Compound 35],–
1740 ± 483,267 ± 59,O=C1/C(=C/c2ccccc2)COc2ccccc21 [Compound 27],–
633 ± 108,208 ± 42,O=C1/C(=C\c2ccccc2)CSc2ccccc21 [Compound 36],–
151 ± 27,160 ± 38,O=C1/C(=C/c2ccccc2)CS(=O)(=O)c2ccccc21 [Compound 38],–
3200 ± 887,98.3 ± 16,O=C1/C(=C/c2ccccc2Br)COc2ccccc21 [Compound 34],–
205 ± 32,97 ± 20.7,COc1cccc(/C=C2\COc3ccccc3C2=O)c1 [Compound 31],–
495 ± 101,90.2 ± 15.1,CN(C)c1ccc(/C=C2\CCc3ccccc3C2=O)cc1 [Compound 15],–
129 ± 19,84 ± 15.3,"O=C1/C(=C/c2ccccc2)CCCc2ccccc21 [Compound 3, E-2-phenylmethylene-1-benzosuberone]",–
52.3 ± 7.6,54 ± 5.5,O=C1/C(=C/c2cccs2)CCc2ccccc21 [Compound 20],–
213 ± 31,50.7 ± 6,O=C1/C(=C/c2ccc3c(c2)OCO3)CCc2ccccc21 [Compound 18],–
27.8 ± 5.6,23.8 ± 3.8,Cn1cccc1C=C1CCc2ccccc2C1=O [Compound 22],–
209 ± 77,21 ± 6.9,O=C1/C(=C/c2ccncc2)CCc2ccccc21 [Compound 26],"effect on NF-κB activation [1]: slight, but statistically significant inhibitory effect; decrease in ROS concentrations (RAW264.7 cells [2]): ~20%; lower nitrite concentrations (RAW264.7 cells [3]): ~50%; effect on TNF-α production (TNF-α in RAW264.7 cells): reduced TNF-α production; effect on IL-6 production (IL-6 in RAW264.7 cells): had the most dominant effect; IC50enolase/IC50ketonase (recombinant human MIF [5]): 10"
28.6 ± 6,20.3 ± 5.5,O=C1C(=Cc2cccnc2)CCc2ccccc21 [Compound 25],–
301 ± 42,16.9 ± 4.2,O=C1/C(=C/c2ccc(Cl)cc2Cl)CCc2ccccc21 [Compound 13],IC50enolase/IC50ketonase (recombinant human MIF [5]): 18
2290 ± 343,16.5 ± 3.4,Cc1ccc(/C=C2\CCc3ccccc3C2=O)cc1 [Compound 4],"effect on NF-κB activation [1]: slight, but statistically significant inhibitory effect; effect on ROS level (RAW264.7 cells [2]): failed to modify ROS level; effect on nitrite production (RAW264.7 cells [3]): could also inhibit nitrite production, but to a lower extent"
